Read-outs that look alike come from different tables or passages of the source.
Legend:
[1] = tested on: aorta (spirally cut strips); assay: Smooth Muscle Relaxant: noradrenaline-contracted rat aorta strips; parameters: species or system male Wistar rats; conditions: contraction by noradrenaline 1 μM, 37° C.
Experimental: The aorta were carefully removed from male Wistar rats, cleaned of fat and extraneous tissue. Spirally cut strips of the aorta were placed in a 25 ml organ bath containing Tyrode solution of the following composition (mM); NaCl, 137; KCl, 2.7; CaCl2, 1.8; NaH2 PO4, 0.4; NaHCO3, 12.0; MgSO4, 1.1; glucose, 5.6. The bath was maintained at 37° C. and bubbled with 95% O2 and 5% CO2. The spirally cut strip was stretched to a resting force of 1.0 g, and the isometric contraction was recorded via a force development transducer on an ink writing recorder. Tissues were equilibrated for 60 minutes before contraction was induced by noradrenaline (NA, 1 μM). The test compounds were cumulatively added to organ bath in increasing concentrations ranging from 10^-8 to 10^-5 M, after maximum stable constriction to NA had been achieved.

cGMP-PDE = target: T1, cGMP-PDE (Homo sapiens, UniProt O76074); assay: cGMP-phosphodiesterase (PDE) Assay (human platelets); assay type: biochemical
T1 construct: cGMP-PDE was separated from other isozymes in human platelets; from tissue; host or cells: human platelets
Experimental: cGMP-phosphodiesterase (PDE) Assay
cGMP-PDE was separated from other isozymes in human platelets by a modification of the method of Thompson et. al. (Cyclic Nucleotide Phosphodiesterase (PDE), in Methods of Enzymatic analysis, Vol 4, p127-234, 1984). In enzyme inhibition assays, the test compounds were dissolved in 10% DMSO and then diluted with assay buffer (50 mM Tris-HCl, pH 8.0, 0.1 mM dithiothreitol, 2 mM EGTA and 10 u/ml snake venom), at final concentrations ranging from 10^-10 to 10^-6 M. Assays were performed at 0.1 μM substrate ([^3 H]-cGMP) concentration, at 30° C. for 10 minutes using enzyme dilutions which gave 10-20% hydrolysis of substrate. Each assay was initiated by addition of substrate and terminated by addition of anion exchange resin (Dowex 1-X8, 25 μg/mg) followed by centrifugation for 10 minutes (3000 rpm, at 4° C.). Radioactivity of supernatant (^3 H-GMP) was assayed by liquid scintillation counting.

[2] = tested on: Vascular smooth muscle cells (vSMCs); assay: vSMC Proliferation ([3H]-thymidine, PDGF-stimulated); assay type: cell-based, male Wistar rats; conditions: Rattus norvegicus, PDGF 10 ng/ml stimulation
Experimental: Vascular smooth muscle cells (vSMCs) were prepared from explants of the thoracic aorta of 10 week old male Wistar rats by a modification of the method of Ross (J. Cell Biol., 50: 172, 1971). They were cultured in DMEM containing 10% fetal calf serum, 1% penicillin G and 1% streptomycin at 37° C. in a 95% air, 5% CO2 humidified atmosphere. vSMCs were seeded in 24 well plates and cultured in the presence of 10% fetal calf serum for 3 days. Cell growth then was arrested by transfer to serum free DMEA. After 24 hours, each test compound or vehicle was added to medium for 1 hour, and then cells were stimulated by PDGF (10 ng/ml). After 24 hours of additional incubation, [^3 H]-thymidine (1 μCi/ml) was added during the final 4 hours of incubation time, and trichloracetic acid insoluble radioactivity was assayed by liquid scintillation counting.

[3] = Toxicity by repetitive oral administration; assay type: in vivo, SD rat; conditions: 32 mg/kg once a day orally, 14 consecutive days
[4] = tested on: Genital Grooming and Penile Erection; assay: Effect on Genital Grooming and Penile Erection in Male Mice; assay type: in vivo, male ICR mice; conditions: oral; observed for one hour; n=10
Experimental: (d) Effect of Tested Compound on Genital Grooming and Penile Erection in Male Mice
Eight weeks old male ICR mice were housed under standard conditions of temperature, lighting and water supply before the experiment.
The test compound was dissolved in PEG400. After oral administration of the test compound, each mouse was transferred to an individual cage.

[5] = tested on: Coronary vasospasm induced with vasopressin; assay: Vasopressin Induced-vasospasm Model (ST segment depression); assay type: in vivo, Male Donryu rats; conditions: 10 mg/kg orally 30 minutes before vasopressin 0.2 iu/kg
Experimental: Vasopressin Induced-vasospasm Model
Male Donryu rats, weighing 160-200 g, were anesthetized intraperitoneally with sodium pentobarbital (60 mg/kg) 15 minutes before intravenous administration of vasopressin, and the femoral vein was cannulated with polyethylene tubing (diameter 0.8 mm). Coronary vasospasm was induced with vasopressin (0.2 iu/kg) dissolved in saline through the cannula in the femoral vein. The each test compound (10 mg/kg) was administered orally 30 minutes before the administration of vasopressin. The standard limb lead II of the electrocardiogram was recorded with an electrocardiograph. The depression of ST segment was measured as the difference in the amplitudes of the ST segment after and just before the administration of vasopressin. The amplitudes of ST segment were measured at intervals of 0.5 minutes for 5 minutes after administration of vasopressin.

FK506-induced nephritis = assay: Prevention of Experimental FK506-induced Nephritis by Cyclic Nucleotide Regulating Drugs (b); assay type: in vivo, male Sprague-Dawley rats; conditions: 20 mg/kg intramuscularly 30 minutes before FK506 10 mg/kg/day, 14 days
Experimental: (b) Prevention of Experimental FK506-induced Nephritis by Cyclic Nucleotide Regulating Drugs
FK506 was administered orally to male Sprague-Dawley rats (body weights; 292-329 g) fed with low sodium diet (0.05% Sodium) in a daily dose of 10 mg/kg/day for 14 days. FK506 was provided in a solid dispersion formulation and dissolved in distilled water to a final concentration of 2 mg/ml. Papaverine was dissolved in saline to 5 mg/ml. Dipyridamole (i.v. formulation; 5 mg/ml) was purchased from Dainippon Pharmaceutical Co., Ltd. Papaverine (20 mg/kg) or dipyridamole (20 mg/kg) was administered intramuscularly 30 minutes before FK506 dosing. After the final dosing of FK506, 24-hours urine was collected for urinalysis. Blood was withdrawn from the abdominal aorta under ether anesthesia 24 hours after final dosing of FK506, and plasma was separated for biochemical analysis and plasma renin activity measurements. The kidney was removed from each animal and was fixed with in 10% formalin solution for histological analysis.

Cyclosporin nephritis = assay: Cyclosporin Nephritis Model; assay type: in vivo, Spontaneously hypertensive rats; conditions: 3.2 mg/kg orally twice a day for two weeks; cyclosporin 50 mg/kg daily
Experimental: Cyclosporin Nephritis Model
Spontaneously hypertensive rats weighing 250-300 g were used. Cyclosporin dissolved in olive-oil containing 5% ethanol was given orally to the animals in a daily dose 50 mg/kg for 2 weeks. After the last dosing of cyclosporin, 24-hours urine was collected for urinalysis. Blood was withdrawn from the abdominal aorta under ether anesthesia 24 hours after the last dosing of cyclosporin, and plasma was separated by centrifugation for biochemical analysis. The animal were bled to death and kidneys were removed for histopathological examination.
The each test compound (3.2 mg/kg) was dissolved in PEG 400 and given orally by the volume of 1 ml/kg twice a day for two weeks.
(§1) Biochemistry and urinalysis: Urine volume, plasma creatinine, urine creatinine, blood urea nitrogen, plasma sodium, urine sodium, plasma potassium and urine potassium, were measured with an autoanalyzer (TBA-20R Toshiba, OM-6020 Daiichi Kagaku).
Histopathology: The kidneys were fixed in phosphate-buffered 10% formalin and its paraffin specimens were prepared and these sections were stained with hematoxylin.

FK506 nephritis = assay: FK506 Nephritis Model (a); assay type: in vivo, Spontaneously hypertensive rats; conditions: orally twice a day for two weeks; FK506 18 mg/kg daily for 1 week
Experimental: (a) Spontaneously hypertensive rats weighing 250-300 g were used. FK506 dissolved in olive-oil containing 5% ethanol was given orally to the animals in a daily dose 18 mg/kg for 1 week. After the last dosing of FK506, 24-hours urine was collected for urinalysis. Blood was withdrawn from the abdominal aorta under ether anesthesia 24 hours after the last dosing of FK506, and plasma was separated by centrifugation for biochemical analysis.
The each test compound was dissolved in PEG 400 and given orally by the volume of 1 ml/kg twice a day for two weeks.
as §1

[6] = 0.1 μM [3H]-cGMP, 30° C., 10 minutes, read-out: IC50

| Structure (SMILES) | IC50 [1] | IC50 (cGMP-PDE) | inhibiting activity (depression of ST segment) [5] | other results |
| --- | --- | --- | --- | --- |
| CCCc1c(C(=O)C(C)C)c2ccc(C(N)=O)cc2n1Cc1ccccc1C [37-(4), 3-Isobutyryl-1-(2-methylbenzyl)-2-propylindole-6-carboxamide] | < 100 nM | < 100 nM |  |  |
| CCCc1c(C(=O)COC)c2ccc(C(N)=O)cc2n1Cc1cc2c(cc1Cl)OCO2 [Example 27-(8), 1-(6-Chloro-3,4-methylenedioxybenzyl)-3-methoxyacetyl-2-propylindole-6-carboxamide] | < 100 nM | < 100 nM |  | IC50 [2]: < 100 nM; death on repetitive oral administration [3]: the dead at dose of 32 mg/kg once a day for 14 consecutive days could not be observed; increase of the frequencies of genital grooming (average) [4]: 266%; lengthening of the duration of penile erection (average) [4]: 171% |
| CCc1c(C(=O)C(C)C)c2ccc(C#N)cc2n1Cc1ccccc1Cl [Example 43, 1-(2-Chlorobenzyl)-2-ethyl-3-isobutyrylindole-6-carbonitrile] | < 100 nM | < 100 nM | more than 50% |  |
| OCCN(CCO)c1nc(N2CCCCC2)c2nc(N(CCO)CCO)nc(N3CCCCC3)c2n1 [dipyridamole, Dipyridamole] |  |  |  | recovery in a measure of blood urea nitrogen (FK506-induced nephritis): more than 50%; recovery in a serum creatinine (FK506-induced nephritis): more than 50%; renofunction of FK506 dosed rats (FK506-induced nephritis): significantly improved renofunction |
| NC(=O)c1ccc2c3c(n(Cc4cc5c(cc4Cl)OCO5)c2c1)C(=O)CCC3 [75-(8), 9-(6-Chloro-3,4-methylenedioxybenzyl)-8-oxo-5,6,7,8-tetrahydrocarbazole-2-carboxamide] | < 100 nM |  |  | IC50 (cGMP-PDE; [6]): < 100 nM |
| CC(C)Cc1c(C(=O)C(C)C)c2ccc(C(N)=O)cc2n1Cc1ccccc1Cl [Example 12, 1-(2-Chlorobenzyl)-2-isobutyl-3-isobutyrylindole-6-carboxamide] | < 100 nM | < 100 nM | more than 50% |  |
| CCCc1c(C(=O)c2ccccc2)c2ccc(C(N)=O)cc2n1Cc1ccccc1Cl [38-(1), 3-Benzoyl-1-(2-chlorobenzyl)-2-propylindole-6-carboxamide] |  |  | more than 50% |  |
| CCCc1c(C(=O)C2CC2)c2ccc(C(N)=O)cc2n1Cc1cc2c(cc1Cl)OCO2 [73-(33), 1-(6-Chloro-3,4-methylenedioxybenzyl)-3-cyclopropanecarbonyl-2-propylindole-6-carboxamide] | < 100 nM | < 100 nM |  |  |
| CCCc1nn(C)c2c(=O)[nH]c(-c3cc(S(=O)(=O)N4CCN(C)CC4)ccc3OCC)nc12 [compound (IX), reference compound] |  |  |  | recovery in a measure of blood urea nitrogen (Cyclosporin nephritis): more than 50%; recovery in a measure of creatinine clearance (ml/kg/min) (Cyclosporin nephritis): more than 40% |
| CCCc1c(C(C)=O)c2ccc(C(N)=O)cc2n1Cc1ccccc1Cl [Example 3, 3-acetyl-1-(2-chlorobenzyl)-2-propylindole-6-carboxamide] |  | < 100 nM | more than 50% | IC50 [2]: < 100 nM; recovery in a measure of blood urea nitrogen (Cyclosporin nephritis): more than 50%; recovery in a measure of creatinine clearance (ml/kg/min) (Cyclosporin nephritis): more than 40% |
| CCCc1c(C(=O)C(C)C)c2ccc(C(N)=O)cc2n1Cc1ccccc1[N+](=O)[O-] [37-(7), 3-Isobutyryl-1-(2-nitrobenzyl)-2-propylindole-6-carboxamide] | < 100 nM | < 100 nM |  |  |
| CCCc1c([N+](=O)[O-])c2ccc(C(=O)OC)cc2n1Cc1ccccc1Cl [Example 72, methyl 1-(2-chlorobenzyl)-3-nitro-2-propylindole-6-carboxylate] | < 100 nM |  |  | IC50 (cGMP-PDE; [6]): < 100 nM |
| CCC(=O)c1c(CC)n(Cc2ccccc2Cl)c2cc(C#N)ccc12 [Example 42, 1-(2-chlorobenzyl)-2-ethyl-3-propionylindole-6-carbonitrile] |  | < 100 nM | more than 50% |  |
| CCc1c(C(=O)C(C)C)c2ccc(C(N)=O)cc2n1Cc1ccccc1Cl [37-(12), 1-(2-Chlorobenzyl)-2-ethyl-3-isobutyrylindole-6-carboxamide] | < 100 nM | < 100 nM | more than 50% |  |
| CCCc1c(C(=O)C2CCCC2)c2ccc(C(N)=O)cc2n1Cc1ccccc1Cl [73-(36), 1-(2-Chlorobenzyl)-3-cyclopentanecarbonyl-2-propylindole-6-carboxamide] | < 100 nM | < 100 nM |  |  |
| COc1ccc(Cc2nccc3cc(OC)c(OC)cc23)cc1OC [Papaverine] |  |  |  | recovery in a measure of blood urea nitrogen (FK506-induced nephritis): more than 50%; recovery in a serum creatinine (FK506-induced nephritis): more than 50%; renofunction of FK506 dosed rats (FK506-induced nephritis): significantly improved renofunction |
| CCCc1c(C(=O)C(C)C)c2ccc(C(N)=O)cc2n1Cc1ccc(F)cc1Cl [37-(9), 1-(2-Chloro-4-fluorobenzyl)-3-isobutyryl-2-propylindole-6-carboxamide] | < 100 nM | < 100 nM |  |  |
| O=C(O)C1CCN(c2nc(NCc3ccc4c(c3)OCO4)c3cc(Cl)ccc3n2)CC1 [compound (VIII), reference compound] |  |  |  | recovery in a measure of creatinine clearance (ml/kg/min) (FK506 nephritis): more than 45%; recovery in urinary sodium excretion (FK506 nephritis): more than 50%; recovery in a measure of blood urea nitrogen (Cyclosporin nephritis): more than 50%; recovery in a measure of creatinine clearance (ml/kg/min) (Cyclosporin nephritis): more than 40% |
